ChEMBL document CHEMBL5625199, “Discovery of triazole-bridged aryl adamantane analogs as an intriguing class of multifunctional agents for treatment of Alzheimer's disease” (Eur J Med Chem, 2023)
Active and inactive are the calls of the source. The calls are words filed in the database; no cut-off is given here.

Columns and labels:
Cholinesterase = Cholinesterase (Equus caballus, UniProt P81908); test: Inhibition of equine serum BuChE using butyrylthiocholine iodide as substrate preincubated with enzyme for 10 mins followed by substrate addition and measured every 1 min for 20 mins by spectrophotometric analysis
[1] = Selectivity index, ratio of IC50 for equine serum BuChE to IC50 for electric eel AChE
[2] = Antagonist activity at GluN1-1a/GluN2B (unknown origin) expressed in xenopus laevis oocytes assessed as inhibition of glycine/glutamate-induced channel current incubated for 20s measured at holding potential of -70 mV by two-electrode voltage clamp technique; type: cell-based, Homo sapiens; conditions: Oocyte
Acetylcholinesterase [3] = target: Acetylcholinesterase (Electrophorus electricus, UniProt O42275); test: Inhibition of electric eel AChE using acetylthiocholine iodide as substrate preincubated with enzyme for 10 mins followed by substrate addition and measured every 1 min for 20 mins by spectrophotometric analysis
in vitro = conditions: PAMPA
Description: Permeability of the compound at 25 ug/ml incubated or 18 hrs by PAMPA-BBB assay

Acetylcholinesterase [4] = target: T1, Acetylcholinesterase (Homo sapiens, UniProt P22303); test: Inhibition of AChE (unknown origin)
[5] = Antagonist activity at NMDA receptor (unknown origin); parameters: species or system Homo sapiens
[6] = target: T2, Acetylcholinesterase (Rattus norvegicus) (UniProt P37136); test: Ex vivo inhibition of AChE activity in brain of scopalamine-induced amnesia Wistar rat model at 2.5 to 10 mg/kg, po administered for 7 days and on day 7 administered with scopolamine at 30 mins before drug administration; type: functional, organism-based; conditions: dose 2.5-10 mg/kg, time 7.0 day
T2 sequence (whole entry): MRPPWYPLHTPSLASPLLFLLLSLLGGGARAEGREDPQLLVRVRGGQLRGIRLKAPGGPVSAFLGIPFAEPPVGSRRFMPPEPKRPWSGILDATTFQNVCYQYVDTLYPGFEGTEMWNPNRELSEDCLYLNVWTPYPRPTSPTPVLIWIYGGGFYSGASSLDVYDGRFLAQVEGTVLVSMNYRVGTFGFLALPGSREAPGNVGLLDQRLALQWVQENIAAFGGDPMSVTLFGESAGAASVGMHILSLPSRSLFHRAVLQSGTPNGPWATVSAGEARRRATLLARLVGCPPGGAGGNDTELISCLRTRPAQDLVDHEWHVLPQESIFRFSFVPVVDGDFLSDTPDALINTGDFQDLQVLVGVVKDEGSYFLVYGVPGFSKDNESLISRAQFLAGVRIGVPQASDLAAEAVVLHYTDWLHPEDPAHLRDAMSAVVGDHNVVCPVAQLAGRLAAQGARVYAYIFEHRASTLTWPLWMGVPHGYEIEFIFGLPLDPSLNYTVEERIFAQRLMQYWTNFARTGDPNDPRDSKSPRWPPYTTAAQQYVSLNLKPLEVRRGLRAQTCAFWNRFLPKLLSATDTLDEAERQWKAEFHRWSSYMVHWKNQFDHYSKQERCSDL

Rattus norvegicus [7] = test: (§1) Antialzheimer activity against scopalamine-induced amnesia Wistar rat model assessed as inhibition of cognition impairment by measuring increase in spontaneous alterations at 2.5 to 10 mg/kg, po administered for 7 days and on day 7 administered with scopolamine at 30 mins before drug administration by Y-maze test; type: functional, organism-based; conditions: dose 2.5-10 mg/kg, time 7.0 day
HEK-293T [8] = test: Cytotoxicity against HEK293T cells assessed as reduction in cell viability at 0.3 to 30 uM measured after 44 hrs by WST-1 assay; type: toxicity, cell-based; conditions: human, dose 0.3-30 µM
SH-SY5Y = test: Neuroprotective activity against human SH-SY5Y cells assessed as reduction of Abeta(1 to 42)-induced cytotoxicity upto 10 uM pretreated with Abeta42 for 24 hrs followed by incubation with compound for 72 hrs by MTT assay; type: functional, cell-based
Rattus norvegicus [9] = test: Antialzheimer activity against Abeta(1 to 42)-induced coginitive deficit Wistar rat model assessed as increase in time spent in the platform zone at 10 mg/kg, po administered for 7 days by Morris water maze test; type: functional, organism-based; conditions: time 7.0 day
[10] = Antagonist activity at GluN1-1a/GluN2D (unknown origin) expressed in xenopus laevis oocytes assessed as inhibition of glycine/glutamate-induced channel current incubated for 20s measured at holding potential of -70 mV by two-electrode voltage clamp technique; type: cell-based; conditions: Homo sapiens, Oocyte
[11] = Antagonist activity at GluN1-1b/GluN2B (unknown origin) expressed in xenopus laevis oocytes assessed as inhibition of glycine/glutamate-induced channel current incubated for 20s measured at holding potential of -70 mV by two-electrode voltage clamp technique; type: cell-based; conditions: Homo sapiens, Oocyte
[12] = target: Amyloid-beta precursor protein (Homo sapiens) (UniProt P05067); test: Inhibition of self-induced Amyloid beta (1 to 42 residues) (unknown origin) aggregation at Abeta(1 to 42) to compound concentration ratio of 10:5 to 10:20 uM incubated for 48 hrs by ThT fluorescence method
HEK-293T [13] = test: Cytotoxicity against HEK293T cells assessed as reduction in cell viability at 100 uM measured after 44 hrs by WST-1 assay; type: toxicity, cell-based; conditions: human
Rattus norvegicus [14] = test: Antialzheimer activity against Abeta(1 to 42)-induced coginitive deficit Wistar rat model assessed as increase in total number of platform crossings at 10 mg/kg, po administered for 7 days by Morris water maze test; type: functional, organism-based; conditions: time 7.0 day
Rattus norvegicus [15] = test: as §1, with “at” for “at 2.5 to”; type: functional, organism-based; conditions: time 7.0 day
[16] = Antagonist activity at GluN1-1b/GluN2C (unknown origin) expressed in xenopus laevis oocytes assessed as inhibition of glycine/glutamate-induced channel current incubated for 20s measured at holding potential of -70 mV by two-electrode voltage clamp technique; type: cell-based; conditions: Homo sapiens, Oocyte
[17] = target: T2, Acetylcholinesterase (Rattus norvegicus); test: Ex vivo inhibition of AChE activity in brain of scopalamine-induced amnesia Wistar rat model at 10 mg/kg, po administered for 7 days and on day 7 administered with scopolamine at 30 mins before drug administration; type: functional, organism-based; conditions: time 7.0 day
[18] = Antagonist activity at GluN1-1b/GluN2D (unknown origin) expressed in xenopus laevis oocytes assessed as inhibition of glycine/glutamate-induced channel current incubated for 20s measured at holding potential of -70 mV by two-electrode voltage clamp technique; type: cell-based; conditions: Homo sapiens, Oocyte
[19] = Antagonist activity at GluN1-1b/GluN2A (unknown origin) expressed in xenopus laevis oocytes assessed as inhibition of glycine/glutamate-induced channel current incubated for 20s measured at holding potential of -70 mV by two-electrode voltage clamp technique; type: cell-based; conditions: Homo sapiens, Oocyte
[20] = target: Amyloid-beta precursor protein (Homo sapiens) (UniProt P05067); test: Inhibition of AChE-induced Amyloid beta (1 to 42 residues) (unknown origin) aggregation at Abeta(1 to 42) to compound concentration ratio of 10:5 to 10:20 uM incubated for 48 hrs by ThT fluorescence method
Acetylcholinesterase [21] = target: T1, Acetylcholinesterase; test: Inhibition of human AChE
[22] = Antagonist activity at GluN1-1a/GluN2A (unknown origin) expressed in xenopus laevis oocytes assessed as inhibition of glycine/glutamate-induced channel current incubated for 20s measured at holding potential of -70 mV by two-electrode voltage clamp technique; type: cell-based; conditions: Homo sapiens, Oocyte
[23] = Antagonist activity at GluN1-1a/GluN2C (unknown origin) expressed in xenopus laevis oocytes assessed as inhibition of glycine/glutamate-induced channel current incubated for 20s measured at holding potential of -70 mV by two-electrode voltage clamp technique; type: cell-based; conditions: Homo sapiens, Oocyte
[24] = target: Glutamate receptor ionotropic, NMDA 2A (Homo sapiens, UniProt Q05586+Q12879); test: Antagonist activity at GluN2A NMDA receptor (unknown origin)
HEK-293T [25] = test: Cytotoxicity against HEK293T cells assessed as reduction in cell viability at 0.3 to 100 uM measured after 44 hrs by WST-1 assay; type: toxicity, cell-based; conditions: human, dose 0.3-100 µM

Sequence of Cholinesterase (P81908 whole entry): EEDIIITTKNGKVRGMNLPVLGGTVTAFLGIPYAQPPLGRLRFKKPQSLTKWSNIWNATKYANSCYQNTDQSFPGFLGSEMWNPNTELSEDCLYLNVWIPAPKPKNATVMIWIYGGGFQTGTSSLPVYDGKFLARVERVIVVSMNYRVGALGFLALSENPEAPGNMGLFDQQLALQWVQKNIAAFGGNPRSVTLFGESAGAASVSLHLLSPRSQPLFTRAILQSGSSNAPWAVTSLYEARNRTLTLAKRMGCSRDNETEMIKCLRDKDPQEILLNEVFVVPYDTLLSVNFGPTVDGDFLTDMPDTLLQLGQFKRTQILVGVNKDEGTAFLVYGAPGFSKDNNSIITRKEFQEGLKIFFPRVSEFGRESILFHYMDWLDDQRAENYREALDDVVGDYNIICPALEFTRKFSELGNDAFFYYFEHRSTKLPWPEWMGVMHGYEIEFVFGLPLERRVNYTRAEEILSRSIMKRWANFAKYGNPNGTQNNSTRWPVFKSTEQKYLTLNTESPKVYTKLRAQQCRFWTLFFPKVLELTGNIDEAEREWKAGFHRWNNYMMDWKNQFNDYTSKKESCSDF
T1 sequence (P22303 whole entry): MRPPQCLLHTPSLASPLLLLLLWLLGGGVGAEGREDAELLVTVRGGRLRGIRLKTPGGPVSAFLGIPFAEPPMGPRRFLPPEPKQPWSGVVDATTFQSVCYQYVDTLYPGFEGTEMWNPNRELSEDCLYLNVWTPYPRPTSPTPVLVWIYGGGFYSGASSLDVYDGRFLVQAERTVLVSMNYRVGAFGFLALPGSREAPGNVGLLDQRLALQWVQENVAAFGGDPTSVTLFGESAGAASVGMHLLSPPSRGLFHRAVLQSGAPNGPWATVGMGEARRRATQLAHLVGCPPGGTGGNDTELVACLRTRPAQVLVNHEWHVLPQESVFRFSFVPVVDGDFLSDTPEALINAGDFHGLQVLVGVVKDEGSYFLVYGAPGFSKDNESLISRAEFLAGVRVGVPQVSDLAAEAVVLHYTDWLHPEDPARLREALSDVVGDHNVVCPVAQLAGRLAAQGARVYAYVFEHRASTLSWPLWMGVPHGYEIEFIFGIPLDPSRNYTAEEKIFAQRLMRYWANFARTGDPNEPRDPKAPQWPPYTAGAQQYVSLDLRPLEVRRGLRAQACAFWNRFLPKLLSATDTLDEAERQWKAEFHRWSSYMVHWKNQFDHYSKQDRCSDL
Sequence of Acetylcholinesterase (Electrophorus electricus, UniProt O42275) (O42275 whole entry): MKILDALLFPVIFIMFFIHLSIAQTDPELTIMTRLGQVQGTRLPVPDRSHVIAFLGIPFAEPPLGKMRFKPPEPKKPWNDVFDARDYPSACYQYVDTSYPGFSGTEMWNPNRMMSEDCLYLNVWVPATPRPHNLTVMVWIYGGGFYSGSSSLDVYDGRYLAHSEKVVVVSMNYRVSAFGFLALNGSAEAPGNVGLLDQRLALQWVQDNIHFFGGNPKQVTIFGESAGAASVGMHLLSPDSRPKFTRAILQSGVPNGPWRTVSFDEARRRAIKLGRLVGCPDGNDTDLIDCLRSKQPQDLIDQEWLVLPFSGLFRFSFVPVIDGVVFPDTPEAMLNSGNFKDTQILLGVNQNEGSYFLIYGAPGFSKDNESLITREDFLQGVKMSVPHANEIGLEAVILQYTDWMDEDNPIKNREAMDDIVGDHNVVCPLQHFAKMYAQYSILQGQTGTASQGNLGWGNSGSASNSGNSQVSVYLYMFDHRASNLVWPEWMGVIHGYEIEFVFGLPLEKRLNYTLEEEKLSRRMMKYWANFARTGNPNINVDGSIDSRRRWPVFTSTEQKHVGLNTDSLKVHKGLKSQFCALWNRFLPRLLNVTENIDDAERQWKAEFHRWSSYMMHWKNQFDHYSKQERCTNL
Sequence of Amyloid-beta precursor protein (Homo sapiens) (P05067 whole entry, the tested form may be a part): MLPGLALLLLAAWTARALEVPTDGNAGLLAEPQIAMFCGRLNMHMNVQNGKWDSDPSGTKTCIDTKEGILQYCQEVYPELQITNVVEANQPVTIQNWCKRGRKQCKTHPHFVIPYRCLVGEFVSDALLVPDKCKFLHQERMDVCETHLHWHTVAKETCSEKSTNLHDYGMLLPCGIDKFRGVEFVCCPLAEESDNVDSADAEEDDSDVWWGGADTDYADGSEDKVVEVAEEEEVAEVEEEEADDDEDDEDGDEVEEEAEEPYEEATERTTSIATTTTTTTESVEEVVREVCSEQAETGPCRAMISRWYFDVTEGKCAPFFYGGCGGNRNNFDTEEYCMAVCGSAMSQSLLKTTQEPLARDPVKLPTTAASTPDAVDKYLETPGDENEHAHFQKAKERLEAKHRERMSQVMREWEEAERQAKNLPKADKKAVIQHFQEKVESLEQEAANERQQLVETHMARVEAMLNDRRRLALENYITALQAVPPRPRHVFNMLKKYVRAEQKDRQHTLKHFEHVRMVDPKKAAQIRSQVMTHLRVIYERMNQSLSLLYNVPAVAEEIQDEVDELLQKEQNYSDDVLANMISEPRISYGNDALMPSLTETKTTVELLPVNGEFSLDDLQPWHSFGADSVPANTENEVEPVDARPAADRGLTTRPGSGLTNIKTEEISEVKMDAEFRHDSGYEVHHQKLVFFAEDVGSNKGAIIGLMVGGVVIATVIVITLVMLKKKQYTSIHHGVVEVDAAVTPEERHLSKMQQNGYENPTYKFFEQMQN
Sequence of Glutamate receptor ionotropic, NMDA 2A (Q12879 whole entry, one chain of several): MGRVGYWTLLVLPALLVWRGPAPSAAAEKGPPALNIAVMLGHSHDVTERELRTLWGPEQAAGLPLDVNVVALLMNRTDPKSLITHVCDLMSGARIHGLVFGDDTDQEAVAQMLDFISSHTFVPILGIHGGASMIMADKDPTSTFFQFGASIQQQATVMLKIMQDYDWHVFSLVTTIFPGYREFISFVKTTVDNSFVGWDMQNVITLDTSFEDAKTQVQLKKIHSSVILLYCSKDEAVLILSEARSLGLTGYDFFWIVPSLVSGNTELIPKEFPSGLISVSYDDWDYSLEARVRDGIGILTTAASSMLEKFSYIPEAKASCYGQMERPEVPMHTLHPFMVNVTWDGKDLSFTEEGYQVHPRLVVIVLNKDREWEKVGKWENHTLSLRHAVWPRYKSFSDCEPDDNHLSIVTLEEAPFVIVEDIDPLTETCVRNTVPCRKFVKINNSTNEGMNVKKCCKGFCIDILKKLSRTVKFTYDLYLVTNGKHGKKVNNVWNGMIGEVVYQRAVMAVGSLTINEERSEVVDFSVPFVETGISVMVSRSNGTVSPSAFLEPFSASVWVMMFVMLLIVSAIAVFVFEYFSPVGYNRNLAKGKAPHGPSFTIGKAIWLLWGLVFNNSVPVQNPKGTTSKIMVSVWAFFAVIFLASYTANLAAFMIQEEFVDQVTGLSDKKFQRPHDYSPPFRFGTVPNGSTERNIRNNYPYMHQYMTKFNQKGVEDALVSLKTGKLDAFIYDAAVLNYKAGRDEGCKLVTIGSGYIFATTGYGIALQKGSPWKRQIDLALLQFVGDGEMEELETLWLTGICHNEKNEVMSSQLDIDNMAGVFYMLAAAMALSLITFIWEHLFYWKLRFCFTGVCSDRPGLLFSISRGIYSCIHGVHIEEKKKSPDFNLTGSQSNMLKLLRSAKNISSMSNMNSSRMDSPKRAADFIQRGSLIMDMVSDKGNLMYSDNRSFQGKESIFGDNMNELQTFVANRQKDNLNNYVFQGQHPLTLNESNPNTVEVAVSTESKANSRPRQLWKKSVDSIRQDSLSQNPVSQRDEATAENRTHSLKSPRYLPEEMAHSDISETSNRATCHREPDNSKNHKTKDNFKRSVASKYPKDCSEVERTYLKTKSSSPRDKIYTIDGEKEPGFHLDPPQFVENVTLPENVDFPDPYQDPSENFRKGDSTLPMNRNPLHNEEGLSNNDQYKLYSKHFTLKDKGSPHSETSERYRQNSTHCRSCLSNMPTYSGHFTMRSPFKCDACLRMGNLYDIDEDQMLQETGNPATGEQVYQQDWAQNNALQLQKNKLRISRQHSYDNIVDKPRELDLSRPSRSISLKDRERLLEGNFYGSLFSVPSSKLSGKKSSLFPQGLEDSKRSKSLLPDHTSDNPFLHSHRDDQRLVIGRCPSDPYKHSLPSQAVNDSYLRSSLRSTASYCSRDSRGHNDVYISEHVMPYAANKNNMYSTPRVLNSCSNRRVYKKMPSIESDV

SMILES	IC50 (Cholinesterase)	Ratio IC50 [1]	IC50 [2]	IC50 (Acetylcholinesterase [3])	Papp at 18 h, 25 ug/ml (in vitro)	also measured
O=[N+]([O-])c1ccc(Cn2cc(CNC34CC5CC(CC(C5)C3)C4)nn2)cc1	9.54 µM	5.93	21.8 µM	1.61 µM	6.83 ×10⁻⁶ cm/s	
c1ccc(Cn2cc(CNC3CCCCCC3)nn2)cc1	11.4 µM	8.02		1.41 µM	7.2 ×10⁻⁶ cm/s	
Cc1ccc(-c2cn(Cc3ccc4ccccc4c3)nn2)cc1C(=O)NCCN1CCOCC1						IC50 (Acetylcholinesterase [4]): 7.23 µM
Cc1ccc(Cn2cc(CNC3CCCCCC3)nn2)cc1	19.3 µM	15.8	63.6 µM	1.22 µM	7.35 ×10⁻⁶ cm/s	
COc1ccc2c(c1)c(=O)c1ccccc1n2Cc1cn(Cc2ccc(Cl)cc2)nn1						IC50 (Acetylcholinesterase [4]): 7.31 µM
c1ccc(CNC23OC4C5C6CC(C7C6C4C72)C53)cc1 (stereo not drawn)						IC50 [5]: 2.98 µM
O=[N+]([O-])c1ccc(Cn2cc(CNC3CCCCCC3)nn2)cc1	19.2 µM	4.14	116 µM	4.64 µM	6.31 ×10⁻⁶ cm/s	
Fc1ccc(Cn2cc(CNC3CCCCCC3)nn2)cc1	10.5 µM	5.75	97.3 µM	1.82 µM	8.42 ×10⁻⁶ cm/s	
Clc1ccc(Cn2cc(CNC34CC5CC(CC(C5)C3)C4)nn2)cc1	3.8 µM	28.1	5.05 µM	0.135 µM	8.24 ×10⁻⁶ cm/s	inhibition [6]: Dose-Dependent Effect; Activity (Rattus norvegicus [7]): Dose-Dependent Effect; Activity (HEK-293T [8]): Non-Toxic; Activity (SH-SY5Y): Active; Activity (Rattus norvegicus [9]): Active; IC50 [10]: 789 µM; IC50 [11]: 2.86 µM; inhibition [12]: Dose-Dependent Effect; Activity (HEK-293T [13]): Toxic; Activity (Rattus norvegicus [14]): Active; Activity (Rattus norvegicus [15]): Active; IC50 [16]: 52.8 µM; inhibition [17]: Active; IC50 [18]: 239 µM; IC50 [19]: 142 µM; inhibition [20]: Dose-Dependent Effect; IC50 (Acetylcholinesterase [21]): 0.133 µM; IC50 [22]: 129 µM; IC50 [23]: 143 µM
CC(C(O)c1ccc(O)cc1)N1CCC(Cc2ccccc2)CC1 (stereo not drawn) [IFENPRODIL]						IC50 [24]: 146 µM
Cc1ccc(Cn2cc(CNC34CC5CC(CC(C5)C3)C4)nn2)cc1	6.04 µM	17.8	197 µM	0.34 µM	7.48 ×10⁻⁶ cm/s	
CC12CC3CC(C)(C1)CC(N)(C3)C2 [MEMANTINE]			0.778 µM		6.84 ×10⁻⁶ cm/s	IC50 [10]: 0.367 µM; Activity (HEK-293T [25]): Toxic; IC50 [11]: 1.27 µM; IC50 (Acetylcholinesterase [4]): 0.78 µM; IC50 [16]: 0.318 µM; IC50 [18]: 0.592 µM; IC50 [19]: 3.39 µM; IC50 [22]: 3.47 µM; IC50 [23]: 0.222 µM
